What follows are compounds tested on Cell Necrosis (assay: Cell necrosis assay / cell viability assay (necrosis inhibitor activity)). Conditions: not given.
Assay type: cell-based

SMILES	EC50 [nM]
O=C(N1CCN(Cc2ccccc2)CC1)N1N=CCC1c1ccccc1 (stereo not drawn) [Compound 97, (4-benzylpiperazin-1-yl)(5-phenyl-4,5-dihydro-1H-pyrazol-1-yl)methanone]	1000 to 10000

Same assay, conditions: necrosis inhibitor activity; EC data for 14-191 extrapolated; read-out: EC50

SMILES	EC50 [nM]
O=C(N1CCN(c2ccccc2)CC1)N1N=CCC1c1ccccc1 (stereo not drawn) [Compound 91, (5-phenyl-4,5-dihydro-1H-pyrazol-1-yl)(4-phenylpiperazin-1-yl)methanone]	1000 to 10000
O=C(N1CCN(c2nccs2)CC1)N1N=CCC1c1ccccc1 (stereo not drawn) [Compound 92, (5-phenyl-4,5-dihydro-1H-pyrazol-1-yl)(4-(thiazol-2-yl)piperazin-1-yl)methanone]	1 to 1000
O=C(C1CC1)N1CCN(C(=O)N2N=CCC2c2ccccc2)CC1 (stereo not drawn) [Compound 93, (4-(cyclopropanecarbonyl)piperazin-1-yl)(5-phenyl-4,5-dihydro-1H-pyrazol-1-yl)methanone]	1000 to 10000
O=C(c1ccco1)N1CCN(C(=O)N2N=CCC2c2ccccc2)CC1 (stereo not drawn) [Compound 94, (4-(furan-2-carbonyl)piperazin-1-yl)(5-phenyl-4,5-dihydro-1H-pyrazol-1-yl)methanone]	1000 to 10000
O=C(c1ccccc1)N1CCN(C(=O)N2N=CCC2c2ccccc2)CC1 (stereo not drawn) [Compound 95, (4-benzoylpiperazin-1-yl)(5-phenyl-4,5-dihydro-1H-pyrazol-1-yl)methanone]	1000 to 10000
O=C(N1CCCN(c2ncc(F)cn2)CC1)N1N=CCC1c1ccccc1 (stereo not drawn) [Compound 96, (4-(5-fluoropyrimidin-2-yl)-1,4-diazepan-1-yl)(5-phenyl-4,5-dihydro-1H-pyrazol-1-yl)methanone]	1000 to 10000
O=C(N1CCN(c2cncnc2)CC1)N1N=CCC1c1ccccc1 (stereo not drawn) [Compound 99, (5-phenyl-4,5-dihydro-1H-pyrazol-1-yl)(4-(pyrimidin-5-yl)piperazin-1-yl)methanone]	1000 to 10000
O=C(N1CCN(c2ncc(F)cn2)CC1)N1N=CCC1c1cccc(F)c1 (stereo not drawn) [Compound 100, (5-(3-fluorophenyl)-4,5-dihydro-1H-pyrazol-1-yl)(4-(5-fluoropyrimidin-2-yl)piperazin-1-yl)methanone]	1 to 1000
O=C(N1CCN(c2ncc(F)cn2)CC1)N1N=CCC1c1cc(F)cc(F)c1 (stereo not drawn) [Compound 101, (5-(3,5-difluorophenyl)-4,5-dihydro-1H-pyrazol-1-yl)(4-(5-fluoropyrimidin-2-yl)piperazin-1-yl)methanone]	1 to 1000
Nc1ccnc(N2CCN(C(=O)N3N=CCC3c3ccccc3)CC2)n1 (stereo not drawn) [Compound 102, (4-(4-aminopyrimidin-2-yl)piperazin-1-yl)(5-phenyl-4,5-dihydro-1H-pyrazol-1-yl)methanone]	1000 to 10000
O=C(N1CCN(c2nccc(O)n2)CC1)N1N=CCC1c1ccccc1 (stereo not drawn) [Compound 103, (4-(4-hydroxypyrimidin-2-yl)piperazin-1-yl)(5-phenyl-4,5-dihydro-1H-pyrazol-1-yl)methanone]	1000 to 10000
Cc1csc(N2CCN(C(=O)N3N=CCC3c3ccccc3)CC2)n1 (stereo not drawn) [Compound 105, (4-(4-methylthiazol-2-yl)piperazin-1-yl)(5-phenyl-4,5-dihydro-1H-pyrazol-1-yl)methanone]	1000 to 10000
Cc1cnc(N2CCN(C(=O)N3N=CCC3c3ccccc3)CC2)s1 (stereo not drawn) [Compound 106, (4-(5-methylthiazol-2-yl)piperazin-1-yl)(5-phenyl-4,5-dihydro-1H-pyrazol-1-yl)methanone]	1000 to 10000
N#Cc1cnc(N2CCN(C(=O)N3N=CCC3c3ccccc3)CC2)s1 (stereo not drawn) [Compound 108, 2-(4-(5-phenyl-4,5-dihydro-H-pyrazole-1-carbonyl)piperazin-1-yl)thiazole-5-carbonitrile]	1 to 1000
C[C@H]1CN(c2ncc(F)cn2)CCN1C(=O)N1OCC[C@H]1c1ccccc1 [Compound 109, ((S)-4-(5-fluoropyrimidin-2-yl)-2-methylpiperazin-1-yl)((S)-3-phenylisoxazolidin-2-yl)methanone]	1 to 1000
C[C@@H]1CN(c2ncc(F)cn2)C[C@H](C)N1C(=O)N1OCC[C@H]1c1ccccc1 [Compound 110, ((2R,6S)-4-(5-fluoropyrimidin-2-yl)-2,6-dimethylpiperazin-1-yl)((S)-3-phenylisoxazolidin-2-yl)methanone]	1 to 1000
C[C@H]1CN(c2ncc(Cl)cn2)CCN1C(=O)N1N=CCC1c1ccccc1 (stereo partly drawn) [Compound 113A, ((S)-4-(5-chloropyrimidin-2-yl)-2-methylpiperazin-1-yl)(5-phenyl-4,5-dihydro-1H-pyrazol-1-yl)methanone]	1 to 1000
C[C@H]1CN(c2ncc(Cl)cn2)CCN1C(=O)N1N=CCC1c1ccccc1 (stereo partly drawn) [Compound 113B, ((S)-4-(5-chloropyrimidin-2-yl)-2-methylpiperazin-1-yl)(5-phenyl-4,5-dihydro-1H-pyrazol-1-yl)methanone]	1000 to 10000
C[C@@H]1CN(c2ncc(F)cn2)CCN1C(=O)N1N=CCC1c1ccccc1 (stereo partly drawn) [Compound 114A, ((R)-4-(5-fluoropyrimidin-2-yl)-2-methylpiperazin-1-yl)(5-phenyl-4,5-dihydro-1H-pyrazol-1-yl)methanone]	1 to 1000

SMILES	EC50 [nM]
C[C@@H]1CN(c2ncc(F)cn2)CCN1C(=O)N1N=CCC1c1ccccc1 (stereo partly drawn) [Compound 114B, ((R)-4-(5-fluoropyrimidin-2-yl)-2-methylpiperazin-1-yl)(5-phenyl-4,5-dihydro-1H-pyrazol-1-yl)methanone]	1000 to 10000
C[C@H]1CN(c2ccc(F)cn2)CCN1C(=O)N1N=CCC1c1ccccc1 (stereo partly drawn) [Compound 115A, ((S)-4-(5-fluoropyridin-2-yl)-2-methylpiperazin-1-yl)(5-phenyl-4,5-dihydro-1H-pyrazol-1-yl)methanone]	1 to 1000
C[C@H]1CN(c2ncc(C#N)cn2)CCN1C(=O)N1N=CCC1c1ccccc1 (stereo partly drawn) [Compound 116B, 2-((3S)-3-methyl-4-(5-phenyl-4,5-dihydro-1H-pyrazole-1-carbonyl)piperazin-1-yl)pyrimidine-5-carbonitrile]	1000 to 10000
C[C@H]1CN(c2ncc(F)cn2)CCN1C(=O)N1N=CCC1c1cccc(F)c1 (stereo partly drawn) [Compound 117A, ((S)-5-(3-fluorophenyl)-4,5-dihydro-H-pyrazol-1-yl)((S)-4-(5-fluoropyrimidin-2-yl)-2-methylpiperazin-1-yl)methanone]	1 to 1000
C[C@H]1CN(c2ncc(F)cn2)CCN1C(=O)N1N=CC[C@@H]1c1cccc(F)c1 [Compound 117B, ((R)-5-(3-fluorophenyl)-4,5-dihydro-1H-pyrazol-1-yl)((S)-4-(5-fluoropyrimidin-2-yl)-2-methylpiperazin-1-yl)methanone]	1 to 1000
C[C@H]1CN(c2ncc(F)cn2)CCN1C(=O)N1N=CC[C@H]1c1cc(F)cc(F)c1 [Compound 118A, ((S)-5-(3,5-difluorophenyl)-4,5-dihydro-1H-pyrazol-1-yl)((S)-4-(5-fluoropyrimidin-2-yl)-2-methylpiperazin-1-yl)methanone]	1 to 1000
C[C@H]1CN(c2ncc(F)cn2)CCN1C(=O)N1N=CC[C@@H]1c1cc(F)cc(F)c1 [Compound 118B, ((R)-5-(3,5-difluorophenyl)-4,5-dihydro-1H-pyrazol-1-yl)((S)-4-(5-fluoropyrimidin-2-yl)-2-methylpiperazin-1-yl)methanone]	1 to 1000
O=C(N1CC(Oc2cnccn2)C1)N1N=CCC1c1ccccc1 (stereo not drawn) [Compound 119, (5-phenyl-4,5-dihydro-1H-pyrazol-1-yl)(3-(pyrazin-2-yloxy)azetidin-1-yl)methanone]	1 to 1000
N#Cc1cnc(OC2CN(C(=O)N3N=CCC3c3ccccc3)C2)s1 (stereo not drawn) [Compound 120, 2-((1-(5-phenyl-4,5-dihydro-1H-pyrazole-1-carbonyl)azetidin-3-yl)oxy)thiazole-5-carbonitrile]	1000 to 10000
N#Cc1csc(OC2CN(C(=O)N3N=CCC3c3ccccc3)C2)n1 (stereo not drawn) [Compound 121, 2-((1-(5-phenyl-4,5-dihydro-1H-pyrazole-1-carbonyl)azetidin-3-yl)oxy)thiazole-4-carbonitrile]	1 to 1000
C[C@@H]1CN(c2ncc(F)cn2)C[C@@H](C)N1C(=O)N1N=CCC1c1ccccc1 (stereo partly drawn) [Compound 122, ((2R,6R)-4-(5-fluoropyrimidin-2-yl)-2,6-dimethylpiperazin-1-yl)(5-phenyl-4,5-dihydro-1H-pyrazol-1-yl)methanone]	1000 to 10000
CC(=C1CN(C(=O)N2N=CCC2c2ccccc2)C1)c1ccccc1 (stereo not drawn) [Compound 123, (5-phenyl-4,5-dihydro-1H-pyrazol-1-yl)(3-(1-phenylethylidene)azetidin-1-yl)methanone]	1 to 1000
CC(c1ccccc1)C1CN(C(=O)N2N=CCC2c2ccccc2)C1 (stereo not drawn) [Compound 124, (5-phenyl-4,5-dihydro-1H-pyrazol-1-yl)(3-(1-phenylethyl)azetidin-1-yl)methanone]	1000 to 10000
C#Cc1cc(OC2CN(C(=O)N3N=CCC3c3ccccc3)C2)ncn1 (stereo not drawn) [Compound 125, (3-((6-ethynylpyrimidin-4-yl)oxy)azetidin-1-yl)(5-phenyl-4,5-dihydro-1H-pyrazol-1-yl)methanone]	1000 to 10000
O=C(N1CC(Oc2c(F)cc(F)cc2F)C1)N1N=CCC1c1cc(F)cc(F)c1 (stereo not drawn) [Compound 126, (5-(3,5-difluorophenyl)-4,5-dihydro-1H-pyrazol-1-yl)(3-(2,4,6-trifluorophenoxy)azetidin-1-yl)methanone]	1 to 1000
O=C(N1CC(Oc2cc(Br)ncn2)C1)N1N=CCC1c1ccccc1 (stereo not drawn) [Compound 127, (3-((6-bromopyrimidin-4-yl)oxy)azetidin-1-yl)(5-phenyl-4,5-dihydro-1H-pyrazol-1-yl)methanone]	1 to 1000
O=C(N1CC(Oc2cc(F)ccc2F)C1)N1N=CCC1c1ccccc1 (stereo not drawn) [Compound 128, (3-(2,5-difluorophenoxy)azetidin-1-yl)(5-phenyl-4,5-dihydro-1H-pyrazol-1-yl)methanone]	1 to 1000
NC(=O)c1cccc(OC2CN(C(=O)N3N=CCC3c3cc(F)cc(F)c3)C2)c1 (stereo not drawn) [Compound 129, 3-((1-(5-(3,5-difluorophenyl)-4,5-dihydro-1H-pyrazole-1-carbonyl)azetidin-3-yl)oxy)benzamide]	1 to 1000
NC(=O)c1ccc(OC2CN(C(=O)N3N=CCC3c3cc(F)cc(F)c3)C2)cc1 (stereo not drawn) [Compound 130, 4-((1-(5-(3,5-difluorophenyl)-4,5-dihydro-1H-pyrazole-1-carbonyl)azetidin-3-yl)oxy)benzamide]	1 to 1000

Source: patent publication US12662469B2 (SIRONAX LTD, priority 2018, dated 2026)
